From BindingDB's records for doi:10.1111/cbdd.12121 (University of California San Diego, 2013) come the findings set out here.

SMILES strings stand for the structures.

The assay has as its target T1, Farnesyl pyrophosphate synthase (Homo sapiens, UniProt P14324).
T1 sequence (P14324 whole entry): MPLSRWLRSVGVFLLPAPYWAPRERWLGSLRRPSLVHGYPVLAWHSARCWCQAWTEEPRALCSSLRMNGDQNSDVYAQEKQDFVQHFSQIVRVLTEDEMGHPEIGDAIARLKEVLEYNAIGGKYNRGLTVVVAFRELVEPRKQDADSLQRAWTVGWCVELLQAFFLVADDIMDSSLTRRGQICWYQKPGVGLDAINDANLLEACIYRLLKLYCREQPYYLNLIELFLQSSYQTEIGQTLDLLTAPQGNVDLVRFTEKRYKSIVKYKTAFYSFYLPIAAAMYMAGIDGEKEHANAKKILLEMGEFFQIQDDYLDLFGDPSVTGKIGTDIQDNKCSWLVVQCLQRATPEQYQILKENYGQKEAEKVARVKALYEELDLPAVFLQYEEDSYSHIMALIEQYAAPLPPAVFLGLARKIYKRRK
The experiment in a line: Inhibition Assay. The settings on record: pH 7.4; 25 °C. From the text:
Human FPPS was expressed and purified and inhibition assays carried out as described previously.
`O=C(Nc1ccc(C2=NCCN2)cc1)c1ccc(C(=O)Nc2ccc(C3=NCCN3)cc2)c([NH+]([O-])O)c1` (stereo unspecified) [60340, 13]: half-maximal inhibition (IC50) required 109 µM.

The molecule `O=C(Nc1cccc(C2=NCCN2)c1)c1ccc(C(=O)Nc2cccc(C3=NCCN3)c2)cc1` [35839, 19] returned a half-maximal inhibitory concentration (IC50) of 13.7 µM.

The molecule `NC(=O)c1cc(NC(=O)c2ccc(C(=O)Nc3cc(C(N)=O)cc(C4=NCCN4)c3)cc2)cc(C2=NCCN2)c1` [100873, 18] registered an IC50 of 10.7 µM.

For `O=C(Nc1ccc(C2=NCCN2)cc1)c1cccc(C(=O)Nc2ccc(C3=NCCN3)cc2)c1` [53212, 15], the IC50 came out at 1.9 µM.

On to `O=C(Nc1ccccc1C1=NCCN1)c1ccc(C(=O)Nc2ccccc2C2=NCCN2)cc1` [35844, 17], for which the IC50 came to 7 µM.

`Nc1cc(C(=O)Nc2ccc(C3=NCCN3)cc2)ccc1C(=O)Nc1ccc(C2=NCCN2)cc1` [50469, 20] had an IC50 of 20.3 µM.

As for `CC1CNC(c2ccc(NC(=O)c3ccc(C(=O)Nc4ccc(C5=NC(C)CN5)cc4)c(N)c3)cc2)=N1` (stereo unspecified) [66761, 16], the IC50 was found to be 2.5 µM.

Consider `O=C(Nc1ccc(C2=NCCN2)c(O)c1)c1ccc(C(=O)Nc2ccc(C3=NCCN3)c(O)c2)cc1` [76527, 23], for which the IC50 was 35 µM.

For `Nc1c(C(=O)Nc2ccc(C3=NCCN3)cc2)cccc1C(=O)Nc1ccc(C2=NCCN2)cc1` [72564, 22], 22.3 µM corresponded to half-maximal inhibition (IC50).

`O=C(Nc1cccc(C2=NCCN2)c1)c1ccc(-c2ccc(C(=O)Nc3cccc(C4=NCCN4)c3)cc2)cc1` [50460, 14] returned an IC50 of 1.8 µM.

In the case of `Nc1cc(C(=O)Nc2cccc(C3=NCCN3)c2)ccc1C(=O)Nc1cccc(C2=NCCN2)c1` [50464, 21], the IC50 was determined as 21 µM.
